Laboratory results: patent US5440016A, “Peptides of the formula (KFmoc) ZZZ and their uses” (priority 1993, dated 1995)
Square brackets hold non-standard residues; d marks the D form. Peptide text beside a SMILES is read from it. * marks the point of attachment. Phe(4-NO2) = N[C@@H](Cc1ccc([N+](=O)[O-])cc1)C(=O)O; Met(O2) = CS(=O)(=O)CC[C@H](N)C(=O)O; Fmoc = O=C(OCC1c2ccccc2-c2ccccc21)*; Orn = NCCC[C@H](N)C(=O)O; Thz = O=C(O)[C@@H]1CSCN1; Abu = CC[C@H](N)C(=O)O; βAla = NCCC(=O)O

System: Human red blood cells (RBCs)
Assay: Hemolytic activity
Assay type: cell-based
Experimental: Each assay was carried out in 96-well culture tissue plates. Four wells per plate contain 125 μl of a non-peptide positive control (1% Triton in de-ionized water), and four wells per plate contain 125 μl of a control blank, phosphate buffered saline (PBS). The hemolytic peptide melittin was used as comparative control. The controls served to detect possible contamination and to calculate the percent hemolysis of each peptide. Human red blood cells (RBCs) were washed with PBS and centrifuged to separate them from the serum. The cells were then resuspended in PBS to a final suspension of 0.5% RBC. 125 μl of this suspension was added to the peptides and controls solution. The release of hemoglobin resulting from the cell lysis was determined by measuring the OD at 414 nm of 100 μl of the supernatant.

| SMILES | HD50 (concentration necessary to lyse 50% of the cells) (Tables 18-21) [µg/mL] | HD50 (concentration necessary to lyse 50% of the cells) (Table 20, lower part) [μg/m] |
| --- | --- | --- |
| CC(C)C[C@H](NC(=O)[C@H](CCCCN)NC(=O)[C@H](Cc1c[nH]c2ccccc12)NC(=O)[C@H](CCCCN)NC(=O)OCC1c2ccccc2-c2ccccc21)C(N)=O [(KFmoc)WKL-NH2] (Fmoc-KWKL-NH2) | 73 | – |
| CSCC[C@H](NC(=O)[C@H](CCCCN)NC(=O)[C@H](Cc1c[nH]c2ccccc12)NC(=O)[C@H](CCCCN)NC(=O)OCC1c2ccccc2-c2ccccc21)C(N)=O [(KFmoc)WKM-NH2] (Fmoc-KWKM-NH2) | 102 | – |
| NCCCC[C@H](NC(=O)OCC1c2ccccc2-c2ccccc21)C(=O)N[C@@H](Cc1c[nH]c2ccccc12)C(=O)N[C@@H](CCCCN)C(=O)N[C@@H](CC(N)=O)C(N)=O [(KFmoc)WKN-NH2] (Fmoc-KWKN-NH2) | 204 | – |
| N=C(N)NCCC[C@H](NC(=O)[C@H](CCCCN)NC(=O)[C@H](Cc1c[nH]c2ccccc12)NC(=O)[C@H](CCCCN)NC(=O)OCC1c2ccccc2-c2ccccc21)C(N)=O [(KFmoc)WKR-NH2] (Fmoc-KWKR-NH2) | 387 | – |
| NCCCC[C@H](NC(=O)OCC1c2ccccc2-c2ccccc21)C(=O)N[C@@H](Cc1c[nH]c2ccccc12)C(=O)N[C@@H](CCCCN)C(=O)N[C@@H](CO)C(N)=O [(KFmoc)WKS-NH2] (Fmoc-KWKS-NH2) | 206 | – |
| C[C@@H](O)[C@H](NC(=O)[C@H](CCCCN)NC(=O)[C@H](Cc1c[nH]c2ccccc12)NC(=O)[C@H](CCCCN)NC(=O)OCC1c2ccccc2-c2ccccc21)C(N)=O [(KFmoc)WKT-NH2] (Fmoc-KWKT-NH2) | 367 | – |
| CC(C)[C@H](NC(=O)[C@H](CCCCN)NC(=O)[C@H](Cc1c[nH]c2ccccc12)NC(=O)[C@H](CCCCN)NC(=O)OCC1c2ccccc2-c2ccccc21)C(N)=O [(KFmoc)WKV-NH2] (Fmoc-KWKV-NH2) | 137 | – |
| NCCCC[C@H](NC(=O)OCC1c2ccccc2-c2ccccc21)C(=O)N[C@@H](Cc1c[nH]c2ccccc12)C(=O)N[C@@H](CCCCN)C(=O)N[C@@H](Cc1c[nH]c2ccccc12)C(N)=O [(KFmoc)WKW-NH2] (Fmoc-KWKW-NH2) | 37 | – |
| NCCCC[C@H](NC(=O)OCC1c2ccccc2-c2ccccc21)C(=O)N[C@@H](Cc1c[nH]c2ccccc12)C(=O)N[C@@H](CCCCN)C(=O)N[C@@H](Cc1ccc(O)cc1)C(N)=O [(KFmoc)WKY-NH2] (Fmoc-KWKY-NH2) | 156 | – |
| NCCCC[C@H](NC(=O)OCC1c2ccccc2-c2ccccc21)C(=O)N[C@@H](Cc1c[nH]c2ccccc12)C(=O)N[C@@H](Cc1ccc(O)cc1)C(=O)N[C@@H](CCCN)C(N)=O [(KFmoc)WY(Orn)-NH2] (Fmoc-KWY[Orn]-NH2) | 62 | – |
| NCCCC[C@H](NC(=O)OCC1c2ccccc2-c2ccccc21)C(=O)N[C@@H](Cc1c[nH]c2ccccc12)C(=O)N[C@@H](Cc1ccc(O)cc1)C(=O)N1CSC[C@H]1C(N)=O [(KFmoc)WY(Thiopro)-NH2] (Fmoc-KWY[Thz]-NH2) | 488 | – |
| CC[C@H](NC(=O)[C@H](Cc1ccc(O)cc1)NC(=O)[C@H](Cc1c[nH]c2ccccc12)NC(=O)[C@H](CCCCN)NC(=O)OCC1c2ccccc2-c2ccccc21)C(N)=O [(KFmoc)WY(aABA)-NH2] (Fmoc-KWY[Abu]-NH2) | 114 | – |
| NCCCC[C@H](NC(=O)OCC1c2ccccc2-c2ccccc21)C(=O)N[C@@H](Cc1c[nH]c2ccccc12)C(=O)N[C@@H](Cc1ccc(O)cc1)C(=O)N[C@@H](CS)C(N)=O [(KFmoc)WYC-NH2] (Fmoc-KWYC-NH2) | 267 | – |
| NCCCC[C@H](NC(=O)OCC1c2ccccc2-c2ccccc21)C(=O)N[C@@H](Cc1c[nH]c2ccccc12)C(=O)N[C@@H](Cc1ccc(O)cc1)C(=O)NCC(N)=O [(KFmoc)WYG-NH2] (Fmoc-KWYG-NH2) | 376 | – |
| NCCCC[C@H](NC(=O)OCC1c2ccccc2-c2ccccc21)C(=O)N[C@@H](Cc1c[nH]c2ccccc12)C(=O)N[C@@H](Cc1ccc(O)cc1)C(=O)N[C@@H](Cc1c[nH]cn1)C(N)=O [(KFmoc)WYH-NH2] (Fmoc-KWYH-NH2) | 139 | – |
| NCCCC[C@H](NC(=O)[C@H](Cc1ccc(O)cc1)NC(=O)[C@H](Cc1c[nH]c2ccccc12)NC(=O)[C@H](CCCCN)NC(=O)OCC1c2ccccc2-c2ccccc21)C(N)=O [(KFmoc)WYK-NH2] (Fmoc-KWYK-NH2) | 65 | – |

| SMILES | HD50 (concentration necessary to lyse 50% of the cells) (Tables 18-21) [µg/mL] | HD50 (concentration necessary to lyse 50% of the cells) (Table 20, lower part) [μg/m] |
| --- | --- | --- |
| NCCCC[C@H](NC(=O)OCC1c2ccccc2-c2ccccc21)C(=O)N[C@@H](Cc1c[nH]c2ccccc12)C(=O)N[C@@H](Cc1ccc(O)cc1)C(=O)N1CCC[C@H]1C(N)=O [(KFmoc)WYP-NH2] (Fmoc-KWYP-NH2) | 97 | – |
| N=C(N)NCCC[C@H](NC(=O)[C@H](Cc1ccc(O)cc1)NC(=O)[C@H](Cc1c[nH]c2ccccc12)NC(=O)[C@H](CCCCN)NC(=O)OCC1c2ccccc2-c2ccccc21)C(N)=O [(KFmoc)WYR-NH2] (Fmoc-KWYR-NH2) | 45 | – |
| C[C@@H](O)[C@H](NC(=O)[C@H](Cc1ccc(O)cc1)NC(=O)[C@H](Cc1c[nH]c2ccccc12)NC(=O)[C@H](CCCCN)NC(=O)OCC1c2ccccc2-c2ccccc21)C(N)=O [(KFmoc)WYT-NH2] (Fmoc-KWYT-NH2) | 53 | – |
| CS(=O)(=O)CC[C@H](NC(=O)[C@@H](Cc1ccccc1)NC(=O)[C@H](Cc1c[nH]c2ccccc12)NC(=O)[C@H](CCCCN)NC(=O)OCC1c2ccccc2-c2ccccc21)C(N)=O [(KFmoc)Wf(MetO2)-NH2] (Fmoc-KW[dF][Met(O2)]-NH2) | – | 44 |
| NCCCC[C@H](NC(=O)OCC1c2ccccc2-c2ccccc21)C(=O)N[C@@H](Cc1c[nH]c2ccccc12)C(=O)N[C@H](Cc1ccccc1)C(=O)N[C@@H](CCCN)C(N)=O [(KFmoc)Wf(Orn)-NH2] (Fmoc-KW[dF][Orn]-NH2) | – | 64 |
| NCCCC[C@H](NC(=O)OCC1c2ccccc2-c2ccccc21)C(=O)N[C@@H](Cc1c[nH]c2ccccc12)C(=O)N[C@H](Cc1ccccc1)C(=O)N1CSC[C@H]1C(N)=O [(KFmoc)Wf(Thiopro)-NH2] (Fmoc-KW[dF][Thz]-NH2) | – | 45 |
| CC[C@H](C)[C@H](NC(=O)[C@@H](Cc1ccccc1)NC(=O)[C@H](Cc1c[nH]c2ccccc12)NC(=O)[C@H](CCCCN)NC(=O)OCC1c2ccccc2-c2ccccc21)C(N)=O [(KFmoc)WfI-NH2] (Fmoc-KW[dF]I-NH2) | 208 | – |
| CC(C)C[C@H](NC(=O)[C@@H](Cc1ccccc1)NC(=O)[C@H](Cc1c[nH]c2ccccc12)NC(=O)[C@H](CCCCN)NC(=O)OCC1c2ccccc2-c2ccccc21)C(N)=O [(KFmoc)WfL-NH2] (Fmoc-KW[dF]L-NH2) | 294 | – |
| NCCCC[C@H](NC(=O)OCC1c2ccccc2-c2ccccc21)C(=O)N[C@@H](Cc1c[nH]c2ccccc12)C(=O)N[C@H](Cc1ccccc1)C(=O)N1CCC[C@H]1C(N)=O [(KFmoc)WfP-NH2] (Fmoc-KW[dF]P-NH2) | 40 | – |
| N=C(N)NCCC[C@H](NC(=O)[C@@H](Cc1ccccc1)NC(=O)[C@H](Cc1c[nH]c2ccccc12)NC(=O)[C@H](CCCCN)NC(=O)OCC1c2ccccc2-c2ccccc21)C(N)=O [(KFmoc)WfR-NH2] (Fmoc-KW[dF]R-NH2) | 122 | – |
| NCCCC[C@H](NC(=O)OCC1c2ccccc2-c2ccccc21)C(=O)N[C@@H](Cc1c[nH]c2ccccc12)C(=O)N[C@H](Cc1ccccc1)C(=O)N[C@@H](Cc1ccc(O)cc1)C(N)=O [(KFmoc)WfY-NH2] (Fmoc-KW[dF]Y-NH2) | 42 | – |
| NCCCC[C@H](NC(=O)OCC1c2ccccc2-c2ccccc21)C(=O)N[C@@H](Cc1c[nH]c2ccccc12)C(=O)N[C@H](Cc1ccccc1)C(=O)N[C@H](Cc1c[nH]c2ccccc12)C(N)=O [(KFmoc)Wfw-NH2] (Fmoc-KW[dF][dW]-NH2) | 36 | – |
| CC[C@@H](C)[C@@H](NC(=O)[C@@H](CS)NC(=O)[C@H](CCCCN)NC(=O)OCC1c2ccccc2-c2ccccc21)C(=O)NCCC(N)=O [(KFmoc)ci(Bala)-NH2] (Fmoc-K[dC][dI][βAla]-NH2) | 37 | – |
| CC[C@@H](C)[C@@H](NC(=O)[C@@H](CS)NC(=O)[C@H](CCCCN)NC(=O)OCC1c2ccccc2-c2ccccc21)C(=O)N[C@@H](CCS(C)(=O)=O)C(N)=O [(KFmoc)ci(MetO2)-NH2] (Fmoc-K[dC][dI][Met(O2)]-NH2) | 40 | – |
| CC[C@@H](C)[C@@H](NC(=O)[C@@H](CS)NC(=O)[C@H](CCCCN)NC(=O)OCC1c2ccccc2-c2ccccc21)C(=O)N[C@@H](Cc1ccc([N+](=O)[O-])cc1)C(N)=O [(KFmoc)ci(NO2 F)-NH2] (Fmoc-K[dC][dI][Phe(4-NO2)]-NH2) | 363 | – |
| CC[C@@H](C)[C@@H](NC(=O)[C@@H](CS)NC(=O)[C@H](CCCCN)NC(=O)OCC1c2ccccc2-c2ccccc21)C(=O)N[C@@H](CCCN)C(N)=O [(KFmoc)ci(Orn)-NH2] (Fmoc-K[dC][dI][Orn]-NH2) | 77 | – |
